# According to US6806267B1, “Apoptosis-inducing compounds” (priority 1998, dated 2004):
# How the values were obtained:
# Jurkat cells [1] = format: cell-based, human; settings: 200 μM
# JNK1 and JNK2 = format: cell-based, human; settings: K562
# Jurkat cells [2] = format: cell-based, human; settings: 200 μM; remark: listed apart in the source
# Experimental: This assay was set up as described by Kohn et al., 1976 with the following modifications.
# Cells were seeded at 0.4×10^6 cells/ml and were in the logarithmic phase of growth. […] Cells harvested for the experiments were at a density of 2×10^6 cells/ml.
# Cells (1×10^6) were labelled with [^3H] thymidine (sp. act. 2 Ci/mmol) (0.2 μCi/ml) and 1 μM unlabelled thymidine, and incubated for 20 hr. Cells were harvested by centrifugation at 500×g for 5 mins following by two washes in PBS and the pellet was resuspended in 3 ml of PBS. Cells were aliquoted into 1 ml amounts in a 24 well plate and allowed to recover for 1 hr at 37° C. before treating with indicated compounds. Following treatment, cells were washed once in PBS and resuspended in 250 μl of PBS. An aliquot of cells (200 μl) was loaded directly onto a 25 mm diameter glass fiber filter, pore size of 0.2 μM. The cells were lysed on the filter by the addition of 5 ml lysis buffer (2% (w/v) SDS, 10 mM disodium EDTA (pH 10) supplemented with 0.5 mg/ml proteinase K. The lysis buffer was allowed to flow slowly through the filter without suction. Filters were washed using 3 ml wash solution (0.02M Na3EDTA pH 10) allowing it to flow without suction. Filters were eluted in the dark with an alkaline solution (0.04M EDTA plus tetrapropylammonium hydroxide (10% in H2O ) added in the amount required to give pH 12.1). The elution apparatus consisted of a filter funnel with output tubing passing through a peristaltic pump to a collector. Elution took place overnight at a flow rate of 0.05 ml/min. Following elution, filters were treated with 0.4 ml HCl (1N) for 1 hr at 70° C. followed by 2.5 ml NaOH (0.4N) for 30 min at room temp. Scintillation fluid (10 ml) was added and radioactivity remaining on the filters was determined by scintillation counting.
# K562 cells = test: Apoptosis in K562 cells, cytospin and staining; format: cell-based, human; settings: K562, 200 μM 1 hour, then PBOX-6 10 μM 16 hours
# HL-60 cells = test: Apoptosis in HL-60 cells, cytospin and Rapi-Diff staining
# [3] = test system: PARP (poly ADP-ribose polymerase); test: Western blot of PARP cleavage in Hela cells; format: cell-based, human
# Experimental: CML cells were seeded at 2×10^6 cells in 5 mls of growth medium, and treated with 10 μM PBOX-6 for 16 and 24 hr. Hela cells were seeded at 1×10^6 cells per 25 cm^2 flask. Following a 24 hour incubation, the cells were treated with PBOX-3 for a further 48 hours and the cells were scraped up. Cells were then centrifuged at 500 g for 5 min, the supernatant was removed and the pellet was resuspended in 200 μl of PARP sample buffer (62.5 mM Tris/HCl pH 6.8, 6 M urea, 10% (w/v) glycerol, 2% (w/v) SDS, 0.00125% bromophenol blue, and 5% (v/v) β-mercaptoethanol was added immediately before use). Samples were sonicated for 15 sec before aliquoting into 15 μl volumes. Samples were stored at −20° C. until use. 10-15 μl of thawed samples were resolved directly on a 10% polyacrylamide gel and transferred onto PVDF membrane at room temperature using wet transfer apparatus. After transfer, the membrane was blocked overnight in PBS containing 5% dry milk (Marvel). After blocking, the membrane was washed in PBST for 2×2 minutes before incubating for 1 hr with anti-PARP antibody (2 μg/ml in PBST containing 1% dry milk). Following incubation the membrane was washed for 20 minutes in PBST and incubated with goat anti mouse HRP conjugated secondary antibody (1:1000 dilution in PBST containing 1% dry milk). After washing in PBST for 30 minutes, ECL was used to visualise the proteins. […]
# [4] = molecular target: T1, peripheral-type benzodiazepine receptor (PBR) (Homo sapiens, UniProt P30536); test: Radioligand binding assay, inhibition of [^3H]PK 11195 binding to HL-60 homogenates
# T1 construct: Cell homogenates (50 μg protein) were incubated with 0.5-50 nM [^3H]; PK 11195; endogenous in cells; host or cells: HL-60 cell homogenate
# T1 sequence (P30536 whole entry): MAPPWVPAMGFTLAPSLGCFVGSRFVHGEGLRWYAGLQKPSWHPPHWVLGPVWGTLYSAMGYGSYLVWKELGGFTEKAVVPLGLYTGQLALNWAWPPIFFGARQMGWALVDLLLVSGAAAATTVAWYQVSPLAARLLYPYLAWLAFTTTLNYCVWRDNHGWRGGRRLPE
# Experimental: HL-60 cells were harvested by centrifugation at 600 g for 5 min and washing in phosphate-buffered saline. The resulting cell pellet was homogenised in 50 mM Tris/HCl buffer, pH 7.4 (2 ml), using an Ultraturrax homogeniser (10 sec) and then passed 5 times through a 21 gauge needle. Cell homogenates (50 μg protein) were incubated with 0.5-50 nM [^3H] PK 11195 in 50 mM Tris/HCl buffer, pH 7.4 (incubation buffer), in a total volume of 0.5 ml on ice. Total and non-specific/non-saturable binding in each case was determined in the absence and presence of 10 μM unlabelled PK 11195 respectively. All samples were incubated in triplicate for 60 min. The incubation mixtures were then filtered and counted as previously described (O'Beirne, et al., 1988). When testing the potency of a compound to inhibit [^3H] PK 11195 binding, samples were incubated with 2 nM [3H] PK 11195 and various concentrations (0.1 nM to 1 μM) of compound and subsequently treated exactly as above. The resulting Ki values were then generated by the use of the computer programs EBDA and LIGAND.
# The amount of radioactivity bound in the presence of the displacer was expressed as a percentage of control bonding and the values represent the mean±SEM of triplicate determinations from one representative experiment performed at least twice. The Ki values were obtained as described in Methods section.
Structure (SMILES),effect of pretreatment on etoposide induced apoptosis (Jurkat cells [1]),effect of Topo II inhibitor pretreatment on PBOX-6 induced JNK activation (JNK1 and JNK2),effect of pretreatment on etoposide induced DNA strand breaks (Jurkat cells [2]),effect of pretreatment on PBOX-6 induced apoptosis (K562 cells),"degree of necrosis (HL-60 cells; HL-60 cells, 10 μM, 16 hours)","cytotoxicity at 10 µM (HL-60 cells; Homo sapiens, HL-60, 16 h, read-out: % Apoptosis) [%]",PARP cleavage [3],Ki [4] [nM]
"C[C@@H](CN1CC(=O)NC(=O)C1)N1CC(=O)NC(=O)C1 [ICRF 187, reference compound]",inhibited apoptosis induced by etoposide,failed to prevent against PBOX-6 induced activation of JNK,prevented etoposide induced DNA strand breaks,reduced but did not completely inhibit,,,,
"CC(=O)OC1=C(c2ccccc2)Oc2cc3ccccc3cc2-n2cccc21 [PBOX-3, 4-Acetoxy-5-phenylnaphto[2,3-b]pyrrolo[1,2-d][1,4]oxazepine]",,,,,negligible,23.5 ± 2.1,induced PARP cleavage,6 ± 1.9
